Assay results reported in patent US20150140125A1, “SYNERGISTIC CANCER THERAPY DRUG COMBINATIONS” (Life Plus, LLC, priority 2013, published 2015).
“Also recorded” adds a separate entry of the source.

What was measured:
Type in all cases: cell-based
[1] = test system: human alveolar adenocarcinoma cell line (H358)
Text: Pub. […] Cells were pipetted into the mold and allowed 3-5 days to form 3-D clusters, mimicking miniature tumors. The cell clusters were removed from the mold by washing and gentle pipetting. The cell clusters were placed in media containing 0.5% FBS. The clusters were dispensed into 96-well plates at a density of approximately 12-15 clusters per well for testing with the therapeutic composition designated herein as “GZ17” and a known chemotherapeutic agent (doxorubicin, aka adriamycin).
The cell clusters were tested against GZ17 and doxorubicin individually at various dosages, and then against the combination therapeutic containing both agents.
(§1) 96-well cell culture plates were loaded with increasing doses of GZ17 (graph on left) within a row. The doses were each added to 8 rows of each plate for 8 replicates at each dose. Cell clusters were pipetted into each well, and exposed for 24 hours to GZ17. At the completion of 24 hours, the wells were treated with 20 microliters of Prestoblue and allowed to incubate for up to 4 hours. The plates were read at 2-4 different time points after exposure to Prestoblue ranging from 30 minutes to 4 hours. The one-hour time point was the most often used and reported. The plates were loaded into a Perkin Elmer Enspire plate reader and each well was excited at 490 nm and read at 560 nm wavelengths. Relative fluorescence for each well was read.
The chemotherapy classification of paclitaxel (also known as taxol) is a mitotic inhibitor. It works by stabilizing the microtubules. The microtubules are part of the cytoskeleton of the cell. When the cells go into cell division, the microtubules must disassemble so that the cell can divide. However, with paclitaxel, the microtubule polymer can't disassemble, and thus the cells can't divide which triggers apoptosis, or programmed cell death. There are subcategories of drugs in the mitotic inhibitor class including the vinca alkaloids (vincristine and vinblastine) and the colchicines class, podophyllotoxin and griseofulvin. Other drugs that work like paclitaxel are the taxanes and docotaxel.
The study was again repeating using fluorouracil. Fluorouracil is an anti-metabolite chemotherapy. It mimics pyrimidine and incorporates into the DNA and RNA blocking the ability of the cell to divide, and eventually ending in death of the cancer cells. Other drugs in this category include cytarabine and 6-azauracil.
(§2) The powder was reconstituted in deionized water and agitated to ensure substantial homogeneity.

[2] = test system: human ovarian cancer cell line (A1847); assay: 3-D ovarian cancer cell cluster viability (Prestoblue fluorescence); settings: for doses giving a statistically significant decrease in live cells: agent alone; for dose that had to be reached before the agent alone had an effect: ovarian cancer spheroids
Experimental: as §1
The human ovarian cancer cell line (A1847) was used to create miniature tumors by loading the individual cells in a micromold according to U.S. Pat. App. Pub. […] Cells were pipetted into the mold and allowed 2-3 days to form 3-D clusters, mimicking miniature tumors. Cell clusters were removed from the mold by washing and gentle pipetting. Cell clusters were placed in media containing 0.5% FBS. The clusters were dispensed into 96-well plates at a density of approximately 10-15 clusters per well. […]
as §2

[3] = test system: human ovarian cancer cell line (A1847); assay: as above; settings: paclitaxel alone at 3.16 μM

SMILES	effect of the agent alone on lung cancer spheroids ([1]; agent alone)	effect of the agent alone on ovarian cancer clusters [2]	doses giving a statistically significant decrease in live cells [2] [µM]	dose that had to be reached before the agent alone had an effect [2] [µM]	other results
O=C(O)CCCc1ccc(N(CCCl)CCCl)cc1 [chlorambucil]	no effect	no effect on its own			
N.N.[Cl][Pt][Cl] [cisplatin]			≥ 31.6	≥ 10	
COc1cccc2c1C(=O)c1c(O)c3c(c(O)c1C2=O)C[C@@](O)(C(=O)CO)C[C@@H]3O[C@H]1C[C@H](N)[C@H](O)[C@H](C)O1 [doxorubicin]			≥ 0.5		relative fluorescence (live cells) with increasing dose ([1]; agent alone, 24 h exposure): fluorescence declined; percent of the cancer cells caused to die ([1]; doxorubicin alone, 1.58 μM, 24 h): 36%; reduction in the number of cells from the baseline ([1]; doxorubicin alone, 0.002 to 0.158 μM): no statistically significant reduction; also recorded: had no effect
O=c1[nH]cc(F)c(=O)[nH]1 [fluorouracil]		the dose response was minimal		≥ 3.16	doses giving a significant decrease in cell numbers ([1]; agent alone): ≥ 1.58 µM; dose that had to be reached before the agent alone had more than little effect ([1]; agent alone, lung cancer spheroids): ≥ 1.58 µM
CN(Cc1cnc2nc(N)nc(N)c2n1)c1ccc(C(=O)N[C@@H](CCC(=O)O)C(=O)O)cc1 [methotrexate]	no effect alone				
CC(=O)O[C@H]1C(=O)[C@@]2(C)[C@H]([C@H](OC(=O)c3ccccc3)[C@]3(O)C[C@H](OC(=O)[C@H](O)[C@@H](NC(=O)c4ccccc4)c4ccccc4)C(C)=C1C3(C)C)[C@]1(OC(C)=O)CO[C@@H]1C[C@@H]2O [paclitaxel]			0.01	≥ 31.6	effect on cancer cell death [3]: no effect on cancer cell death; dose at which the number of live cells is reduced (other doses not significant) ([1]; paclitaxel alone): 5 µM
